Key:
[1] = 298.15 K; 101 kPa; Liquid; Vibrating tube method
[2] = refractive index (Na D-line) (dimensionless); details: 298.15 K; 101.33 kPa; Liquid; refractometer
[3] = xn = mol fraction of the nth substance listed; details: 298.15 K, 101 kPa, Liquid, Vibrating tube method
[4] = refractive index (Na D-line) (dimensionless); xn = mol fraction of the nth substance listed; details: 298.15 K, 101 kPa, Liquid, refractometer

COC(=O)OC [dimethyl carbonate]
Details	mass density [kg/m3]	refractive index
[1]	1063.04	–
[2]	–	1.36654

CCO [ethanol] + COC(=O)OC
x2 = 0
Details	mass density [kg/m3]	refractive index
[3]	785.33	–
[4]	–	1.35933

COC(=O)OC [dimethyl carbonate] + CC(C)CC(C)(C)C
Details	mass density, [3] [kg/m3]	refractive index, [4]
x1 = 0.0508	697.25	1.38814
x1 = 0.1017	706.78	1.38716
x1 = 0.1995	727.06	1.38504
x1 = 0.3007	751.06	1.38275
x1 = 0.4002	778.05	1.38062
x1 = 0.5002	809.37	1.37889
x1 = 0.5996	845.17	1.37642
x1 = 0.7005	887.53	1.37408
x1 = 0.8002	936.46	1.37109
x1 = 0.9011	994.92	1.36879
x1 = 0.9504	1027.38	1.36722
x1 = 1	1063.04	1.36654

CC(C)CC(C)(C)C [2,2,4-trimethylpentane]
Details	mass density [kg/m3]	refractive index
[1]	688.18	–
[2]	–	1.38898

COC(=O)OC [dimethyl carbonate] + CCO
Details	mass density, [3] [kg/m3]	refractive index, [4]
x1 = 0.051	805.05	1.36039
x1 = 0.1	823.15	1.3606
x1 = 0.1999	857.92	1.36122
x1 = 0.2998	889.9	1.36186
x1 = 0.4005	919.86	1.36241
x1 = 0.5008	947.72	1.36301
x1 = 0.6011	973.66	1.36375
x1 = 0.6993	997.55	1.36439
x1 = 0.8002	1020.67	1.36504
x1 = 0.9008	1042.49	1.36576
x1 = 0.9514	1053.11	1.36614
x1 = 1	1063.04	1.36654

CC(C)CC(C)(C)C [2,2,4-trimethylpentane] + COC(=O)OC
x2 = 0
Details	mass density [kg/m3]	refractive index
[3]	688.18	–
[4]	–	1.38898

CCO [ethanol]
Details	mass density [kg/m3]	refractive index
[1]	785.33	–
[2]	–	1.35933
